In publication PMC5365645, “Preclinical Pharmacokinetics and Pharmacodynamic Target of SCY-078, a First-in-Class Orally Active Antifungal Glucan Synthesis Inhibitor, in Murine Models of Disseminated Candidiasis” (Antimicrobial Agents and Chemotherapy, 2017):

Assays:
[1] = Plasma protein binding by equilibrium dialysis; assay type: in vitro ADME; settings: pH 7.4
Method: Protein binding of [^3H]SCY-078 in mouse, rat, dog, and human plasma was determined by means of equilibrium dialysis and liquid scintillation counting. Tritium-labeled SCY-078 in ethanol was added to unlabeled SCY-078 in methanol to prepare stock solutions at 10, 100, and 1,000 μM SCY-078 with constant activity.
Protein binding was determined against isotonic phosphate-buffered saline (pH 7.4) at 37°C for 24 h. Aliquots (10 μl) of each stock solution were added to pooled DBA mouse (n = >10 animals), Sprague-Dawley rat, beagle dog, or human plasma (1 ml) to achieve final total concentrations of 0.1, 1, and 10 μM SCY-078. The final concentration of the organic solvent was 0.9% (vol/vol). Dialysis was performed in 1-ml acrylic dialysis cells (Scienceware, South Wayne, NJ), where plasma and buffer were separated by a 12.4-kDa cutoff membrane (Sigma, St. Louis, MO). After incubation, aliquots (100 μl) of plasma and phosphate buffer were counted for radioactivity (Beckman LS6500 liquid scintillation counter), and unbound fractions of SCY-078 were estimated based on the following calculation: unbound fraction = radioactivity (dpm/0.1 ml) in buffer/total radioactivity (dpm/0.1 ml) in plasma.

[2] = in vitro; assay type: in vitro ADME; settings: human, Caco-2
Method: Caco-2 cell monolayers were used to assess the in vitro absorptive permeability of SCY-078 as a predictor of absorption across the gut following oral delivery. The mean apparent permeability for 5 μM SCY-078 in the apical-to-basolateral direction was 8.9 ± 0.78 ×10^−6 cm/s (89 ± 7.8 nm/s), indicating good oral absorption since in this assay permeability values of >10^−6 cm/s are considered predictive of good absorption after oral administration ([9]).
Caco2 cells (ATCC CRL-2102) were cultured in Dulbecco modified Eagle medium with the dipeptide form of L-glutamine (GlutaMAX), 10% (vol/vol) fetal bovine serum, and 1% (vol/vol) penicillin-streptomycin at 10,000 U/ml in a 75-ml flask at 37°C in a humidified atmosphere of 5% CO2. […] On the day of the assay, the cell monolayers were rinsed with transport medium (Hanks balanced salt solution with 25 mM glucose and 25 mM HEPES [MediaTech Corning, Tewksbury, MA]), and the absorptive permeation of SCY-078 was evaluated by measuring the flux from the apical to the basolateral compartments. […] The apparent permeability coefficient (Papp; cm/s) was calculated as follows: Papp = 1/A·C0 (dQ/dt), where dQ/dt is the rate of drug appearance in the basolateral compartment (μmol/s), C0 is the initial drug concentration in the donor compartment (μM), and A is the surface area of the monolayer (cm^2). […]

[3] = set-up: method as in ref 5 = [5]; 5. Trucksis M , Garrett G , Bautmans A , Heirman I , Laethem M , Comisar WA , Maganti L , Bi S , Iwamoto M , O'Mara E , Wagner JA , Depre M , de Hoon J 2011 A phase I multiple-rising dose study evalua; settings: single- and multiple-dose phase 1 and 2 clinical studies ref 5; cited from earlier work
[4] = Biological distribution to kidney tissue after oral delivery; settings: for Time to which concentrations would remain measurable in kidney: after dose 13, predicted from elimination rate constant
Method: (§1) Female CD-1 mice (n = 5/sex/time point/group) weighing approximately 25 g were administered SCY-078 by oral gavage either once daily or as multiple twice-per-day (Q12h) treatments, with individual doses ranging between 3 and 100 mg/kg (6 to 150 mg/kg/day). Mice also received a single 1-mg/ml i.v. dose of SCY-078. Plasma specimens were collected prior to dosing and at 0.25, 0.5, 1, 2, 4, 6, 9, 12, 18, 24, 36, 48, and 60 h after the single i.v. dose and at the same time points from 1 h postdose onward following oral dose 13 on day 7 of treatment. On the first day of oral treatment, plasma specimens were collected immediately before each of the two doses and 1, 2, 4, 6, 9, and 12 h postdosing. […] Kidney tissues were collected at 2, 4, 12, 24, 36, 48, and 60 h after oral dose 13 on treatment day 7, blotted dry, and stored at approximately −80°C until analysis.
(§2) On the day of analysis, either treatment-naive (drug-free) kidney tissue or freshly thawed tissue samples from PK studies were weighed and homogenized in 3 volumes of phosphate-buffered saline. The density of kidney tissue used for the determination of volume was assumed to be 1.0 g/ml.
(§3) Whole-kidney tissue samples were homogenized in parallel by means of a Precellys 24 bead mill homogenizer (Bertin Technologies, Montigny le Bretonneux, France) using 2-ml Precellys tubes containing 1.4-mm-diameter ceramic beads (CK14) and a single 15-s cycle of 5,500 rpm. Parallel bead homogenization increased throughput and avoided potential cross-contamination of samples since each sample was wholly contained and homogenized within its own sealed vial with no direct contact between the homogenizing instrument or other samples.
(§4) Mouse plasma (50 μl) or kidney tissue homogenate (50 μl) was treated with 5 volumes of acetonitrile containing 50 ng of deuterium (d9)-labeled SCY-078 internal standard/ml to precipitate proteins. Treated samples were mixed on a 96-well plate shaker for ∼30 min and then centrifuged at approximately 4,000 × g and 15°C for 15 min. Supernatants were transferred to fresh 96-well plates for analysis by LC-MS/MS.

[5] = in vivo; settings: female, CD-1, mouse; for AUC(0-inf) / AUC(0-t) / half-life: kidney; for AUC(0-inf) / AUC(0-t) / half-life / Kp: po; for Kp at 12 h / Kp: kidney/plasma; for Kp at 12 h: oral
Method: as §1, §2, §3, §4

[6] = In vitro metabolic stability in hepatic microsomes, dog or human summary; assay type: in vitro ADME; settings: both sexes, liver microsomes
Method: Scaling intrinsic clearance to hepatic clearance based on liver blood flow indicates low clearance in rodents and moderate clearance in dogs and humans ([15]). These solubility, permeability, and metabolic stability data are consistent with SCY-078 being well absorbed from the intestine and able to achieve clinically relevant exposures following oral delivery.
The metabolic stability of SCY-078 was evaluated with male and female mouse, male rat, male and female dog, and mixed-gender human liver microsomes (XenoTech, Lenexa, KS). SCY-078 (1 μM) was incubated with pooled liver microsomes (0.5 mg protein/ml) for 0, 5, 10, 20, and 30 min at 37°C in the presence of NADPH. Aliquots were taken at each sampling time point and extracted with 5 volumes of ice-cold acetonitrile containing the internal standard (d9-SCY-078, 125 ng/ml). Supernatants from the incubation mixtures were analyzed for the parent compound by LC-MS/MS according to the conditions described below. The metabolic competency of microsomal preparations was established using the control compounds 7-ethoxycoumarin, propranolol, and verapamil. The in vitro intrinsic clearance (CLint), the CLint scaled to the in vivo intrinsic clearance (CL′int), and the half-life were determined for SCY-078 incubated with microsomes from each species.

[7] = tested on: C. albicans CLY18600; assay: Single delayed-dose treatment model of disseminated candidiasis; assay type: in vivo, mice; settings: single dose 16 h after infection, tissue burden 96 h after treatment, regression analysis
[8] = kidney, 12 mg/kg oral, dose 13 day 7

CC(C)[C@@H](C)[C@@]1(C)CC[C@]2(C)[C@H]3CC[C@@H]4[C@@]5(COC[C@@]4(C)[C@@H](OC[C@](C)(N)C(C)(C)C)[C@H](n4ncnc4-c4ccncc4)C5)C3=CC[C@@]2(C)[C@@H]1C(=O)O [SCY-078, (1S,4aR,6aS,7R,8R,10aR,10bR,12aR,14R,15R)-15-[[(2R)-2-amino-2,3,3-trimethylbutyl]oxy]-8-[(1R)-1,2-dimethylpropyl]-14-[5-(4-pyridinyl)-1H-1,2,4-triazol-1-yl]-1,6,6a,7,8,9,10,10a,10b,11,12,12a-dodecahydro-1,6a,8,10a-tetramethyl-4H-1,4a-propano-2H-phenanthro[1,2-c]pyran-7-carboxylic acid]
fraction unbound at 24 h ([1]; DBA, mouse plasma): 0.002 | fraction unbound at 24 h, 0.1 μM ([1]; DBA, mouse plasma): 0.002 | fraction unbound at 24 h, 1 μM ([1]; DBA, mouse plasma): 0.002 | fraction unbound at 24 h, 10 μM ([1]; DBA, mouse plasma): 0.002 | fraction unbound at 24 h, 0.1 μM ([1]; Sprague-Dawley, rat plasma): 0.002 | fraction unbound at 24 h, 1 μM ([1]; Sprague-Dawley, rat plasma): 0.003 | fraction unbound at 24 h, 10 μM ([1]; Sprague-Dawley, rat plasma): 0.002 | fraction unbound at 24 h, 0.1 μM ([1]; beagle, dog plasma): 0.004 | fraction unbound at 24 h, 1 μM ([1]; beagle, dog plasma): 0.005 | fraction unbound at 24 h, 10 μM ([1]; beagle, dog plasma): 0.003 | fraction unbound at 24 h, 0.1 μM ([1]; human plasma): 0.002 | fraction unbound at 24 h, 1 μM ([1]; human plasma): 0.003 | fraction unbound at 24 h, 10 μM ([1]; human plasma): 0.004 | Papp at 2 h, 5 µM [2]: ~8.9 ×10⁻⁶ cm/s | Papp at 2 h, 5 μM [2]: 8.9 ± 0.78 ×10⁻⁶ cm/s | Tolerability [3]: well tolerated | Time to which concentrations would remain measurable in kidney ([4]; 6.25 mg/kg): approximately 100 h | Time to which concentrations would remain measurable in kidney ([4]; 12 mg/kg): ~115 h | AUC0–24 ([4]; kidney, 6.25 mg/kg oral, dose 13 day 7): 195 µg·h/mL | AUC0–24 [4, 8]: 553 µg·h/mL | half-life [4, 8]: 8.6 h | AUC(0-inf) ([5]; 6.25 mg/kg): 198 µg·h/mL | AUC(0-t) ([5]; 6.25 mg/kg): 118 µg·h/mL | half-life ([5]; 6.25 mg/kg): 9.2 h | AUC(0-inf) ([5]; 12 mg/kg): 700 µg·h/mL | AUC(0-t) ([5]; 12 mg/kg): 346 µg·h/mL | half-life ([5]; 12 mg/kg): 8.9 h | Kp at 12 h ([5]; 6.25 mg/kg): 19 | Kp at 12 h ([5]; 12 mg/kg): 25.7 | Kp ([5]; 6.25 mg/kg): 21.5 | Kp ([5]; 12 mg/kg): 23.1 | remaining at 0.5 h, 1 µM ([6]; dog or human microsomes, read-out: % remaining after 30 min): ~50% | half-life at 1 μM ([6]; dog or human microsomes, read-out: Half-life (t0.5)): ≥ 0.483 h | microsomal CLint at 1 μM ([6]; larger species (dog, human), read-out: Intrinsic clearance): < 48 µL/min/mg | Dose achieving stasis endpoint [7]: 8.97 mg/kg
